Measurements published in ChEMBL document CHEMBL4616724, “Topoisomerase Inhibitors Addressing Fluoroquinolone Resistance in Gram-Negative Bacteria” (J Med Chem, 2020).
≈ marks a conversion by molar mass, not a printed value.

Experiments:
Escherichia coli [1] = assay: Antibacterial activity against wild type Escherichia coli ATCC 25922 at pH 7.4 by CLSI-based broth microdilution assay; type: functional
Pseudomonas aeruginosa [2] = assay: Antibacterial activity against wild type Pseudomonas aeruginosa PAO1 K767 by CLSI-based broth microdilution assay; type: functional
Klebsiella pneumoniae = assay: Antibacterial activity against wild type Klebsiella pneumoniae ATCC 43816 by CLSI-based broth microdilution assay; type: functional
Pseudomonas aeruginosa [3] = assay: Antibacterial activity against Pseudomonas aeruginosa K1542/K767 harboring MexB/MexXY deletion mutant by CLSI-based broth microdilution assay; type: functional
Pseudomonas aeruginosa [4] = assay: Antibacterial activity against Pseudomonas aeruginosa NB52023 harboring gyrA T83I mutant/ParC S87L mutant by CLSI-based broth microdilution assay; type: functional
Escherichia coli [5] = assay: Antibacterial activity against Escherichia coli BW25113/JW0451-2 harboring AcrB deletion mutant by CLSI-based broth microdilution assay; type: functional
Escherichia coli [6] = assay: Antibacterial activity against wild type Escherichia coli ATCC 25922 at pH 5.8 by CLSI-based broth microdilution assay; type: functional
Escherichia coli [7] = assay: Ratio of MIC for antibacterial activity against wild type Escherichia coli ATCC 25922 at pH 5.8 to MIC for antibacterial activity against wild type Escherichia coli ATCC 25922 at pH 7.4; type: functional
[8] = Photoirradiation factor, ratio of IC50 for BALB/c mouse 3T3 cells under dark condition to IC50 for BALB/c mouse 3T3 cells under 5 J/cm2 sunlight irradiation by neutral red uptake assay; type: ADME, cell-based, NIH3T3; settings: BALB/c 3T3 cells, read-out: Ratio IC50
NIH3T3 = assay: Phototoxicity against BALB/c mouse 3T3 cells assessed as reduction in cell viability preincubated for 1 hr followed by 5 J/cm2 UVA sunlight irradiation for 50 mins and subsequent replacement of medium and measured after 24 hrs by neutral red uptake assay; type: cell-based; settings: NIH3T3, light or radiation study
[9] = Dark toxicity in BALB/c mouse 3T3 cells assessed as reduction in cell viability incubated for 1 hr prior to 50 mins incubation under dark condition followed by replacement of medium and measured after 24 hrs by neutral red uptake assay; type: cell-based, NIH3T3; settings: BALB/c 3T3 cells
[10] = Selectivity ratio of MIC for wild type Escherichia coli ATCC 25922 to MIC for Escherichia coli BW25113/JW0451-2 harboring AcrB deletion mutant; type: functional
[11] = Solubility of the compound in pH 7 PBS incubated for 24 hrs under gently shaking condition by UPLC/UV/CLND/MS analysis; type: physicochemical; settings: buffer, pH 7, 24 h

For `COc1cc(=O)n(C2CC2)c2c(C)c(N3CC[C@@H]([C@H](C)N)C3)c(F)cc12`, the MIC (Escherichia coli [1]) was 32 µg/mL (≈ 89 µM), the MIC (Pseudomonas aeruginosa [2]) was 32 µg/mL (≈ 89 µM) and the MIC (Klebsiella pneumoniae) was 16 µg/mL (≈ 44.5 µM). The MIC (Pseudomonas aeruginosa [3]) was 8 µg/mL (≈ 22.3 µM), the MIC (Pseudomonas aeruginosa [4]) was 16 µg/mL (≈ 44.5 µM) and the MIC (Escherichia coli [5]) was 1 µg/mL (≈ 2.78 µM).

In the case of `Cc1c(N2CC[C@H](O)C2)c(F)cc2c(CN)cc(=O)n(C3CC3)c12`, the MIC (Escherichia coli [1]) is reported as 0.5 µg/mL (≈ 1.51 µM), the MIC (Pseudomonas aeruginosa [2]) is reported as 4 µg/mL (≈ 12.1 µM) and the MIC (Klebsiella pneumoniae) is reported as 1 µg/mL (≈ 3.02 µM). The MIC (Pseudomonas aeruginosa [3]) was 0.25 µg/mL (≈ 0.754 µM), the MIC (Pseudomonas aeruginosa [4]) was 1 µg/mL (≈ 3.02 µM) and the MIC (Escherichia coli [5]) was ≤ 0.03 µg/mL. The MIC (Escherichia coli [6]) was 8 µg/mL (≈ 24.1 µM) and the Ratio (Escherichia coli [7]) was 16.

Compound `Cc1c(N2CC[C@@H]([C@H](C)N)C2)c(F)cc2c(OCCN(C)C)cc(=O)n(C3CC3)c12` has an MIC (Escherichia coli [1]) of 1 µg/mL (≈ 2.4 µM), an MIC (Pseudomonas aeruginosa [2]) of 8 µg/mL (≈ 19.2 µM) and an MIC (Klebsiella pneumoniae) of 4 µg/mL (≈ 9.6 µM). The MIC (Pseudomonas aeruginosa [3]) was 4 µg/mL (≈ 9.6 µM) and the MIC (Pseudomonas aeruginosa [4]) was 8 µg/mL (≈ 19.2 µM).

With `Cc1c(N2CCCC2)c(F)cc2c(CN)cc(=O)n(C3CC3)c12` the MIC (Escherichia coli [1]) was 1 µg/mL (≈ 3.17 µM), the MIC (Pseudomonas aeruginosa [2]) was 32 µg/mL (≈ 101 µM) and the MIC (Klebsiella pneumoniae) was 2 µg/mL (≈ 6.34 µM). The MIC (Pseudomonas aeruginosa [3]) was 4 µg/mL (≈ 12.7 µM), the MIC (Pseudomonas aeruginosa [4]) was 8 µg/mL (≈ 25.4 µM) and the MIC (Escherichia coli [5]) was 0.06 µg/mL (≈ 0.19 µM).

Work on `Cc1c(N2CC[C@H](N)C2)c(F)cc2c(CN)cc(=O)n(C3CC3)c12` yielded an MIC (Escherichia coli [1]) of 2 µg/mL (≈ 6.05 µM), an MIC (Pseudomonas aeruginosa [2]) of 4 µg/mL (≈ 12.1 µM) and an MIC (Klebsiella pneumoniae) of 2 µg/mL (≈ 6.05 µM). It also gave an MIC (Pseudomonas aeruginosa [3]) of 0.5 µg/mL (≈ 1.51 µM), an MIC (Pseudomonas aeruginosa [4]) of 2 µg/mL (≈ 6.05 µM) and an MIC (Escherichia coli [5]) of 0.5 µg/mL (≈ 1.51 µM). The selectivity ratio [8] was 1.7, the IC50 (NIH3T3) was 288 µM and the MIC (Escherichia coli [6]) was > 32 µg/mL. For the same compound, the Ratio (Escherichia coli [7]) was “>=32”.

In the case of `Cc1c(N2CC3CC3(N)C2)c(F)cc2c(CN)cc(=O)n(C3CC3)c12` (stereo unspecified), the MIC (Escherichia coli [1]) is reported as 0.25 µg/mL (≈ 0.73 µM), the MIC (Pseudomonas aeruginosa [2]) is reported as 4 µg/mL (≈ 11.7 µM) and the MIC (Klebsiella pneumoniae) is reported as 0.5 µg/mL (≈ 1.46 µM). It also gave an MIC (Pseudomonas aeruginosa [3]) of 0.5 µg/mL (≈ 1.46 µM), an MIC (Pseudomonas aeruginosa [4]) of 1 µg/mL (≈ 2.92 µM) and an MIC (Escherichia coli [5]) of 0.06 µg/mL (≈ 0.175 µM). The selectivity ratio [8] was 104, the IC50 (NIH3T3) was 3.03 µM and the IC50 at 110 min [9] was 316 µM. For the same compound, the MIC (Escherichia coli [6]) was 32 µg/mL (≈ 93.5 µM), the Ratio (Escherichia coli [7]) was 128 and the Selectivity ratio [10] was 4.

Compound `Cc1c(N2CC3CC3(CN)C2)c(F)cc2c(CN)cc(=O)n(C3CC3)c12` (racemic) has an MIC (Escherichia coli [1]) of 8 µg/mL (≈ 22.4 µM), an MIC (Pseudomonas aeruginosa [2]) of 32 µg/mL (≈ 89.8 µM) and an MIC (Klebsiella pneumoniae) of 32 µg/mL (≈ 89.8 µM). It also gave an MIC (Pseudomonas aeruginosa [3]) of 4 µg/mL (≈ 11.2 µM), an MIC (Pseudomonas aeruginosa [4]) of 16 µg/mL (≈ 44.9 µM) and an MIC (Escherichia coli [5]) of 1 µg/mL (≈ 2.81 µM).

For `NCc1cc(=O)n(C2CC2)c2c(OC(F)F)c(N3CC4CC4(N)C3)c(F)cc12` (stereo unspecified), the MIC (Escherichia coli [1]) was 2 µg/mL (≈ 5.07 µM), the MIC (Pseudomonas aeruginosa [2]) was > 32 µg/mL and the MIC (Klebsiella pneumoniae) was 8 µg/mL (≈ 20.3 µM). It also gave an MIC (Pseudomonas aeruginosa [3]) of 8 µg/mL (≈ 20.3 µM), an MIC (Pseudomonas aeruginosa [4]) of 32 µg/mL (≈ 81.1 µM) and an MIC (Escherichia coli [5]) of 1 µg/mL (≈ 2.54 µM).

For `Cc1c(N2C[C@@]3(C)C[C@@]3(N)C2)c(F)cc2c(CN)cc(=O)n(C3CC3)c12` (racemic), the MIC (Escherichia coli [1]) was 0.125 µg/mL (≈ 0.351 µM), the MIC (Pseudomonas aeruginosa [2]) was 4 µg/mL (≈ 11.2 µM) and the MIC (Klebsiella pneumoniae) was 0.25 µg/mL (≈ 0.701 µM). For the same compound, the MIC (Pseudomonas aeruginosa [3]) was 1 µg/mL (≈ 2.81 µM), the MIC (Pseudomonas aeruginosa [4]) was 2 µg/mL (≈ 5.61 µM) and the MIC (Escherichia coli [5]) was ≤ 0.03 µg/mL.

For `Cc1c(N2CC[C@@H]([C@H](C)N)C2)c(F)cc2c(-c3n[nH]c(=O)o3)cc(=O)n(C3CC3)c12`, the MIC (Escherichia coli [1]) was 8 µg/mL (≈ 19.3 µM), the MIC (Pseudomonas aeruginosa [2]) was > 32 µg/mL and the MIC (Klebsiella pneumoniae) was 32 µg/mL (≈ 77.4 µM). The MIC (Pseudomonas aeruginosa [3]) was 8 µg/mL (≈ 19.3 µM) and the MIC (Pseudomonas aeruginosa [4]) was 32 µg/mL (≈ 77.4 µM).

Compound `NCc1cc(=O)n(C2CC2)c2cc(N3CC4CC4(N)C3)c(F)cc12` (stereo unspecified) has an MIC (Escherichia coli [1]) of 1 µg/mL (≈ 3.05 µM), an MIC (Pseudomonas aeruginosa [2]) of 16 µg/mL (≈ 48.7 µM) and an MIC (Klebsiella pneumoniae) of 4 µg/mL (≈ 12.2 µM). The MIC (Pseudomonas aeruginosa [3]) was 2 µg/mL (≈ 6.09 µM), the MIC (Pseudomonas aeruginosa [4]) was 4 µg/mL (≈ 12.2 µM) and the MIC (Escherichia coli [5]) was 0.5 µg/mL (≈ 1.52 µM).

For `Cc1c(-c2cc(F)c(N)cc2F)c(F)cc2c(CN)cc(=O)n(C3CC3)c12`, the MIC (Escherichia coli [1]) was 0.25 µg/mL (≈ 0.67 µM), the MIC (Pseudomonas aeruginosa [2]) was 8 µg/mL (≈ 21.4 µM) and the solubility [11] was “Insoluble”. The MIC (Klebsiella pneumoniae) was 1 µg/mL (≈ 2.68 µM), the MIC (Pseudomonas aeruginosa [3]) was 2 µg/mL (≈ 5.36 µM) and the MIC (Pseudomonas aeruginosa [4]) was 8 µg/mL (≈ 21.4 µM). For the same compound, the MIC (Escherichia coli [5]) was ≤ 0.03 µg/mL.

Compound `Cc1c(N2CCNCC2)c(F)cc2c(CN)cc(=O)n(C3CC3)c12` has an MIC (Escherichia coli [1]) of 0.25 to 4 µg/mL (≈ 0.757 to 12.1 µM), an MIC (Pseudomonas aeruginosa [2]) of 4 to 8 µg/mL (≈ 12.1 to 24.2 µM) and an MIC (Klebsiella pneumoniae) of 0.5 to 2 µg/mL (≈ 1.51 to 6.05 µM). The MIC (Pseudomonas aeruginosa [3]) was 0.5 to 1 µg/mL (≈ 1.51 to 3.03 µM), the MIC (Pseudomonas aeruginosa [4]) was 1 to 2 µg/mL (≈ 3.03 to 6.05 µM) and the MIC (Escherichia coli [5]) was 0.06 to 1 µg/mL (≈ 0.182 to 3.03 µM).

`COc1c(N2CC3(C)CC3(N)C2)c(F)cc2c(CN)cc(=O)n(C3CC3)c12` (stereo unspecified) gave an MIC (Escherichia coli [1]) of 1 µg/mL (≈ 2.68 µM), an MIC (Pseudomonas aeruginosa [2]) of 32 µg/mL (≈ 85.9 µM) and an MIC (Klebsiella pneumoniae) of 4 µg/mL (≈ 10.7 µM). The MIC (Pseudomonas aeruginosa [3]) was 8 µg/mL (≈ 21.5 µM), the MIC (Pseudomonas aeruginosa [4]) was 16 µg/mL (≈ 43 µM) and the MIC (Escherichia coli [5]) was 0.25 µg/mL (≈ 0.671 µM).

With `Cc1c(N2C[C@H]3CC[C@@]3(N)C2)c(F)cc2c(CN)cc(=O)n(C3CC3)c12` (racemic) the MIC (Escherichia coli [1]) was 2 µg/mL (≈ 5.61 µM), the MIC (Pseudomonas aeruginosa [2]) was 8 µg/mL (≈ 22.4 µM) and the MIC (Klebsiella pneumoniae) was 4 µg/mL (≈ 11.2 µM). For the same compound, the MIC (Pseudomonas aeruginosa [3]) was 2 µg/mL (≈ 5.61 µM), the MIC (Pseudomonas aeruginosa [4]) was 4 µg/mL (≈ 11.2 µM) and the MIC (Escherichia coli [5]) was 0.25 µg/mL (≈ 0.701 µM).
